Data from patent US11491146B2, “Therapeutic methods and combinations” (priority 2017, dated 2022).
pEC50, pIC50, pKi: −log10 of the molar value. Where “and” joins values, the source holds several entries; their conditions need not be identical. Identical values can stand only once. Like-named read-outs stand apart in the source and are kept apart here.

Columns and labels:
VIM-2 [1] = target: T1, VIM-2 (Pseudomonas aeruginosa, UniProt Q9K2N0); conditions: literature value; read-out: IC50 in parenthesis reported from ref. 3; cited from earlier work
E. coli = experiment: Cell viability assay, wild type E. coli growth; format: cell-based; conditions: for relative percentage growth compared to untreated cells: E. coli
Protocol: (§1) The cells were cultured on 0.8 g/100 ml nutrient agar plate at pH 7.0 and 37° C. The bacterial growth medium was diluted in nutrient broth (NB) to a concentration absorbance of 1.5 at OD600 nm and incubated overnight in 10 ml capped culture tubes with shaking. An overnight culture of the bacterial strain was sub-cultured to an optical density of 0.06 at OD600 nm into the NB medium and was then seeded at max 200 μl into the wells of a 96 well microtiter plate. Samples were then incubated at 37° C. and shaken at 200 rpm for 18 h.

VIM-2 [2] = target: T1, VIM-2; experiment: Single dose enzymatic inhibition assay against VIM2 (nitrocefin hydrolysis); format: biochemical, P. aeruginosa; conditions: for VIM2 inhibition in words: single dose, 50 μM
Protocol: (§2) For our biochemical assay, the blavmugene, from a clinical strain of P. aeruginosa, was expressed using the pET24a (+) vector [20]. The pET24a-VIM-2 plasmid was transformed into competent BL21 (DE3) E. coli cells. The cells were plated onto an LB-agar plate with kanamycin (25 μg/mL) and incubated overnight at 37° C. A single colony was used to inoculate 50 mL of LB, containing 25 μg/mL kanamycin, and the culture was shaken overnight at 37° C. From the overnight culture, 10 mL were transferred to 4×1 L LB medium containing 25 μg/mL kanamycin. The cultures were grown at 37° C. until the optical density (OD600 nm) reached 0.6-0.8, at which point protein production was induced with IPTG (0.5 mM) and ZnC12 (100 μM). The temperature was reduced to 20° C., and the cells were shaken for an additional 18 h. The cultures were harvested by centrifugation (8K×g) for 10 min at 4° C. The resulting pellets were re-suspended with 25 mL of 50 mM HEPES, pH 7.5, containing 500 mM NaCl (buffer B). The cells were lysed with three passes through a French Press. The lysate was centrifuged (15 Kxg) for 30 min at 4° C. The supernatant was dialyzed against 2 L of 50 mM HEPES, pH 7.5 (buffer A), for 4 h. Buffer A was used to equilibrate a 25 mL Q-Sepharose column using an FPLC. The sample was loaded onto the column, and proteins were eluted with a linear gradient 0-500 mM NaCl with buffer B. Fractions containing VIM2, determined by SDS-PAGE, were pooled and concentrated to 2-3 mL in an Amicon ultraconcentrator equipped YM-10 membrane. Further purification was conducted with a Sephacryl S-200 gel filtration column using 50 mM HEPES, pH 7.5, containing 150 mM NaCl.

VIM2 expressing E. coli = format: cell-based
Protocol: as §1

VIM-2 [3] = target: T1, VIM-2; experiment: Dose response enzymatic inhibition assay and inhibition constant against VIM2; format: biochemical, P. aeruginosa; conditions: for Ligand efficiency (LE): LE = −1.38 log (Ki)/N, N = number of heavy atoms
Protocol: as §2
The relative change in absorbance was evaluated as percentage inhibition and the IC50 was determined by fitting the data to a sigmoidal dose-response curve. The enzyme inhibition constant (Ki) was derived from initial-velocity measurements by nonlinear regression using competitive-inhibition enzyme kinetics using Graphpad Prism 6.

HEK293 cells [4] = system: HEK293 cells
Protocol: (§3) Human embryonic kidney cell line (HEK293) was grown in DMEM (Dulbecco's modifications of eagle's medium with L-glutamine & 4.5 G/L glucose) supplemented with fetal bovine serum 100 units/ml of penicillin G and 0.1 mg/ml of streptomycin sulfate in a humidified atmosphere of a 5% CO2 at 37° C.
(§4) Cell proliferations were measured by counting viable cells by using the 3(4,5dimethylthiazol-2-yl)-2,5-diphenyltetrazolium bromide (MTT) (Sigma-Aldrich, St. Louis, Mo.) colorimetric dye-reduction assay. […] After 72 hrs, 10 μl of MTT (5 mg/ml) dye was added to each well and the plates were incubated for 4 hours at 37° C. in 5% CO2 incubator. After centrifuge with 1,500 rpm/10 mins, the supernatant was removed and 200 μl of dimethyl sulfoxide (DMSO) was added and the plates were gently shaken to solubilize the formed formazan for 30 min. The absorbance was measured using a micro-plate reader at wave length 590 nm. The CC50 were obtained by fitting the data to a sigmoidal dose-response equation using Graphpad Prism 6.

HEK293 cells [5] = experiment: Cytotoxicity by MTT cell proliferation assay in HEK293; conditions: HEK293 CC50 ratio
Protocol: as §3, §4

VIM-2 expressing E. coli = experiment: EC50* for restoring amoxicillin growth inhibition in VIM-2 expressing E. coli; format: cell-based; conditions: in the presence of 50 μM amoxicillin
Protocol: as §1
The bacterial culture was prepared as described above. […] The mixing of the bacterial culture plate were then incubated in a 37° C. […] shaken incubator at 200 rpm for 18 h before measuring their optical density at 600 nm.

HDACs = conditions: earlier study; cited from earlier work
[6] = Cytotoxicity by MTT cell proliferation assay in HEK293; conditions: human, HEK293 cells
Protocol: as §3, §4

[7] = 50 μM compound, 5 nM VIM-2, 10 μM nitrocefin, 30 mins
[8] = 5 nM VIM-2, 10 μM nitrocefin, read-out: IC50
[9] = competitive-inhibition fit, nitrocefin substrate, read-out: Ki

Molecule | % Inhibition at 50 μM (VIM-2 [2]; [7]) | VIM2 inhibition in words (VIM-2 [2]) | relative percentage growth compared to untreated cells (E. coli; Amox(+), 50 μM amoxicillin) | relative percentage growth compared to untreated cells (VIM2 expressing E. coli; Amox(+), 50 μM amoxicillin) | relative percentage growth compared to untreated cells (E. coli; Amox(−)) | inhibition at 50 µM (VIM-2 [2]; [7]) | relative percentage growth compared to untreated cells (VIM2 expressing E. coli; Amox(−)) | also measured
C[C@H](CS)C(=O)N1CCC[C@H]1C(=O)O [L-Captopril] | 98% | – | – | – | – | – | – | pIC50 (VIM-2 [1]): 5.36; antibacterial activity on their own, in words (E. coli; wild type E. coli): moderate antibacterial activity; antibacterial activity on their own, in words (VIM2 expressing E. coli): moderate antibacterial activity; synergistic growth inhibition with amoxicillin (VIM2 expressing E. coli): over 90%
O=C(N[C@@H](C(=O)O)c1ccccc1)c1cccc(=S)n1O [Compound 5] | 34% | Moderate inhibitory activities | – | – | – | – | – | fold loss of Ki relative to compound 3 (VIM-2 [3]): 576 fold; pIC50 (VIM-2 [3]; [8]): 4.17; Ligand efficiency (LE) (VIM-2 [3]): 0.34; pKi (VIM-2 [3]; [9]): 5.12
CC1(C)S[C@@H]2[C@H](NC(=O)[C@H](N)c3ccc(O)cc3)C(=O)N2[C@H]1C(=O)O [Amox, amoxicillin] | – | – | 3.6% | 77% | – | – | – | growth inhibition by amoxicillin alone (E. coli; wild type E. coli, 50 μM): over 96%
O=C(O)[C@H]1/C(=C/CO)O[C@@H]2CC(=O)N21 [Clavulanate] | 15% | – | 2.9% | 57% | 86% | ≤ 25% | 93% | –
C[C@]1(Cn2ccnn2)[C@H](C(=O)O)N2C(=O)C[C@H]2S1(=O)=O [Tazobactam] | 25% | – | – | – | – | ≤ 25% | – | –
O=C(O)c1cccc(=S)n1O [Compound 3, 1-Hydroxypyridine-2(1H)-thiones-6-carboxylic acid] | 98% | – | 3.6% | 3.2% | 77% | – | 61% | CC50 (HEK293 cells [4]): 97 µM; pIC50 (VIM-2 [3]; [8]): 6.57; Ligand efficiency (LE) (VIM-2 [3]): 0.99; pKi (VIM-2 [3]; [9]): 7.89; pIC50 (VIM-2 [3]; read-out: IC50): 6.57; pKi (VIM-2 [3]; read-out: Ki): 7.89; fold change in cytotoxicity from parent compound 2 (HEK293 cells [5]): 6900 fold; antibacterial activity on their own, in words (E. coli; wild type E. coli): moderate antibacterial activity; pEC50 (VIM-2 expressing E. coli): 7.00 and 6.96; range selectivity among all eleven HDACs (HDACs): ~5000 fold; antibacterial activity on their own, in words (VIM2 expressing E. coli): moderate antibacterial activity; synergistic growth inhibition with amoxicillin (VIM2 expressing E. coli): over 90%
O=C(NC(C(=O)O)c1ccccc1)c1ccc(=O)n(O)c1 (stereo not drawn) [Compound 1, 2-(1-Hydroxy-6-oxo-1,6-dihydropyridine-3-carboxamido)-2-phenylacetic acid] | – | Poor inhibition | – | – | – | 12% | – | –
Zinc pyrithione [Compound 2a] | 15% | – | – | – | – | – | – | –
O=C(CCCCCCC(=O)Nc1ccccc1)NO [SAHA] | 29% | Poor inhibition | 3.6% | 60% | 83% | – | 79% | –
On1ccccc1=S [Compound 2b, 1-Hydroxypyridine-2-thione] | – | – | – | – | – | – | – | pIC50 (VIM-2 [3]): 6.04; pKi (VIM-2 [3]): 6.66; CC50 at 72 h [6]: 14 nM; growth inhibition activity on its own (E. coli; wild type E. coli, compound alone): over 89%; inhibition at 50 µM (VIM-2 [2]): 93%; growth inhibition activity on its own (VIM2 expressing E. coli; compound alone): over 89%
